IC50 data for 18 compounds are collected here from patent publication US11752138B2 (VANDERBILT UNIVERSITY, priority 2020, dated 2023).

Structures are written as SMILES.

The target of the assay is Human LDHA (Homo sapiens (Human), UniProt P00338). Put plainly: human LDHA primary biochemical assay (Example 1). The following applies: biochemical LDHA inhibitory activity, assay of Example 1. An excerpt: This example describes a human LDHA primary biochemical assay employed in the characterization of a compound of Formula I in an embodiment of the dislcosure.
Test compounds were placed in a Greiner Bio-One (Monroe, N.C.) 1536-well black solid bottom assay plate. 200 millimolar (mM) Tris HCl, pH 7.4, 100 micromolar (μM) EDTA and 0.01% TWEEN-20™, final concentration, was used as the assay buffer. The LDHA reagent was 2 nanomolar (nM) Human LDHA (Meridian Life Science, Inc., Memphis, Tenn.), final concentration, in assay buffer. The substrate reagent was 0.06 mM NADH and 0.2 mM sodium pyruvate, final concentration, in assay buffer. The resazurin/diaphorase coupling reagent was 0.037 mM resazurin and 0.133 milligrams per milliliter (mg/mL) diaphorase, final concentration, in assay buffer. The inhibition of LDHA activity was measured by fluorescence emission. […]
Turning to `CN(C)c1cccc(-c2cc(-c3nn(-c4nc(C(=O)O)cs4)c(CC4CC4)c3Cc3ccc(S(N)(=O)=O)c(F)c3)ccc2F)c1` [Compound 194, 2-(5-(cyclopropylmethyl)-3-(3′-(dimethylamino)-6-fluoro-[1,1′-biphenyl]-3-yl)-4-(3-fluoro-4-sulfamoylbenzyl)-1H-pyrazol-1-yl)thiazole-4-carboxylic acid], the IC50 is less than 100 nM.

In turn, `Cc1cc(-c2cc(-c3nn(-c4nc(C(=O)O)cs4)c(CC4CC4)c3Cc3ccc(S(N)(=O)=O)c(F)c3)ccc2F)ccc1F` [Compound 195, 2-(5-(cyclopropylmethyl)-3-(4′,6-difluoro-3′-methyl-[1,1′-biphenyl]-3-yl)-4-(3-fluoro-4-sulfamoylbenzyl)-1H-pyrazol-1-yl)thiazole-4-carboxylic acid] displayed an IC50 of less than 100 nM.

`NS(=O)(=O)c1ccc(Cc2c(-c3ccc(F)c(C4=CCCO4)c3)nn(-c3nc(C(=O)O)cs3)c2CC2CC2)cc1F` [Compound 197, 2-(5-(cyclopropylmethyl)-3-(3-(4,5-dihydrofuran-2-yl)-4-fluorophenyl)-4-(3-fluoro-4-sulfamoylbenzyl)-1H-pyrazol-1-yl)thiazole-4-carboxylic acid] yielded an IC50 of less than 100 nM.

Consider `Cc1ccc(-c2cccc(-c3nn(-c4nc(C(=O)O)cs4)c(CC4CC4)c3Cc3ccc(S(N)(=O)=O)c(F)c3)c2)cc1` [Compound 198, 2-(5-(cyclopropylmethyl)-4-(3-fluoro-4-sulfamoylbenzyl)-3-(4′-methyl-[1,1′-biphenyl]-3-yl)-1H-pyrazol-1-yl)thiazole-4-carboxylic acid], for which the IC50 was less than 100 nM.

`N#Cc1cccc(-c2cc(-c3nn(-c4nc(C(=O)O)cs4)c(CC4CC4)c3Cc3ccc(S(N)(=O)=O)c(F)c3)ccc2F)c1` [Compound 200, 2-(3-(3′-cyano-6-fluoro-[1,1′-biphenyl]-3-yl)-5-(cyclopropylmethyl)-4-(3-fluoro-4-sulfamoylbenzyl)-1H-pyrazol-1-yl)thiazole-4-carboxylic acid] displayed a half-inhibitory concentration (IC50) of less than 100 nM.

`N#Cc1ccc(-c2cc(-c3nn(-c4nc(C(=O)O)cs4)c(CC4CC4)c3Cc3ccc(S(N)(=O)=O)c(F)c3)ccc2F)cc1` [Compound 201, 2-(3-(4′-cyano-6-fluoro-[1,1′-biphenyl]-3-yl)-5-(cyclopropylmethyl)-4-(3-fluoro-4-sulfamoylbenzyl)-1H-pyrazol-1-yl)thiazole-4-carboxylic acid] returned an IC50 of less than 100 nM.

In the case of `NS(=O)(=O)c1ccc(Cc2c(-c3ccc(F)c(N4CCCC4=O)c3)nn(-c3nc(C(=O)O)cs3)c2CC2CC2)cc1F` [Compound 202, 2-(5-(cyclopropylmethyl)-3-(4-fluoro-3-(2-oxopyrrolidin-1-yl)phenyl)-4-(3-fluoro-4-sulfamoylbenzyl)-1H-pyrazol-1-yl)thiazole-4-carboxylic acid], the IC50 is less than 100 nM.

`Cc1ccc(-c2cccc(-c3nn(-c4nc(C(=O)O)cs4)c(CC4CC4)c3Cc3ccc(S(N)(=O)=O)c(F)c3)c2)nc1` [Compound 203, 2-(5-(cyclopropylmethyl)-4-(3-fluoro-4-sulfamoylbenzyl)-3-(3-(5-methylpyridin-2-yl)phenyl)-1H-pyrazol-1-yl)thiazole-4-carboxylic acid] registered an IC50 of less than 100 nM.

Take `Cc1ccc(-c2cccc(-c3nn(-c4nc(C(=O)O)cs4)c(CC4CC4)c3Cc3ccc(S(N)(=O)=O)c(F)c3)c2)cn1` [Compound 204, 2-(5-(cyclopropylmethyl)-4-(3-fluoro-4-sulfamoylbenzyl)-3-(3-(6-methylpyridin-3-yl)phenyl)-1H-pyrazol-1-yl)thiazole-4-carboxylic acid]: the IC50 was less than 100 nM.

Compound `CC(C)c1ccc(-c2cncc(-c3nn(-c4nc(C(=O)O)cs4)c(CC4CC4)c3Cc3ccc(S(N)(=O)=O)c(F)c3)c2)cc1` [Compound 210, 2-[5-(cyclopropylmethyl)-4-[(3-fluoro-4-sulfamoylphenyl)methyl]-3-[5-(4-isopropylphenyl)pyridin-3-yl]pyrazol-1-yl]-1,3-thiazole-4-carboxylic acid] registered a half-inhibitory concentration (IC50) of less than 100 nM.

As to `Cc1cc(-c2cc(-c3nn(-c4nc(C(=O)O)cs4)c(CC4CC4)c3Cc3ccc(S(N)(=O)=O)c(F)c3)ccc2F)ccc1C(C)C` [Compound 213, 2-[5-(cyclopropylmethyl)-3-[4-fluoro-3-(4-isopropyl-3-methylphenyl)phenyl]-4-[(3-fluoro-4-sulfamoylphenyl)methyl]pyrazol-1-yl]-1,3-thiazole-4-carboxylic acid], the IC50 is less than 100 nM.

For the compound `Cc1ncc(-c2cccc(-c3nn(-c4nc(C(=O)O)cs4)c(CC4CC4)c3Cc3ccc(S(N)(=O)=O)c(F)c3)c2)cn1` [Compound 214, 2-[5-(cyclopropylmethyl)-4-[(3-fluoro-4-sulfamoylphenyl)methyl]-3-[3-(2-methylpyrimidin-5-yl)phenyl]pyrazol-1-yl]-1,3-thiazole-4-carboxylic acid], the IC50 was less than 100 nM.

`CC(C)c1cnc(-c2cccc(-c3nn(-c4nc(C(=O)O)cs4)c(CC4CC4)c3Cc3ccc(S(N)(=O)=O)c(F)c3)c2)s1` [Compound 215, 2-[5-(cyclopropylmethyl)-4-[(3-fluoro-4-sulfamoylphenyl)methyl]-3-[3-(5-isopropyl-1,3-thiazol-2-yl)phenyl]pyrazol-1-yl]-1,3-thiazole-4-carboxylic acid] registered an IC50 of less than 100 nM.

For `Cc1cnc(-c2cccc(-c3nn(-c4nc(C(=O)O)cs4)c(CC4CC4)c3Cc3ccc(S(N)(=O)=O)c(F)c3)c2)nc1` [Compound 217, 2-[5-(cyclopropylmethyl)-4-[(3-fluoro-4-sulfamoylphenyl)methyl]-3-[3-(5-methylpyrimidin-2-yl)phenyl]pyrazol-1-yl]-1,3-thiazole-4-carboxylicacid], the IC50 was less than 100 nM.

Take `NS(=O)(=O)c1ccc(Cc2c(-c3cccc(-c4ccc(C(F)(F)F)cc4)c3)nn(-c3nc(C(=O)O)cs3)c2CC2CC2)cc1F` [Compound 219, 2-(5-(cyclopropylmethyl)-4-(3-fluoro-4-sulfamoylbenzyl)-3-(4′-(trifluoromethyl)-[1,1′-biphenyl]-3-yl)-1H-pyrazol-1-yl)thiazole-4-carboxylic acid]: the IC50 is less than 100 nM.

The compound `NS(=O)(=O)c1ccc(Cc2c(-c3cccc(-c4ccc5c(c4)CCC5)c3)nn(-c3nc(C(=O)O)cs3)c2CC2CC2)cc1F` [Compound 220, 2-(5-(cyclopropylmethyl)-3-(3-(2,3-dihydro-1H-inden-5-yl)phenyl)-4-(3-fluoro-4-sulfamoylbenzyl)-1H-pyrazol-1-yl)thiazole-4-carboxylic acid] returned an IC50 of less than 100 nM.

Compound `NS(=O)(=O)c1ccc(Cc2c(-c3cccc(-c4ccc(C5CC5)cc4)c3)nn(-c3nc(C(=O)O)cs3)c2CC2CC2)cc1F` [Compound 222, 2-(3-(4′-cyclopropyl-[1,1′-biphenyl]-3-yl)-5-(cyclopropylmethyl)-4-(3-fluoro-4-sulfamoylbenzyl)-1H-pyrazol-1-yl)thiazole-4-carboxylic acid] yielded an IC50 of 100 to 1000 nM.

As for `Cc1cc(-c2cccc(-c3nn(-c4nc(C(=O)O)cs4)c(CC4CC4)c3Cc3ccc(S(N)(=O)=O)c(F)c3)c2)ccc1O` [Compound 228, 2-(5-(cyclopropylmethyl)-4-(3-fluoro-4-sulfamoylbenzyl)-3-(4′-hydroxy-3′-methyl-[1,1′-biphenyl]-3-yl)-1H-pyrazol-1-yl)thiazole-4-carboxylic acid], the IC50 is less than 100 nM.

The term IC50 denotes the concentration at which inhibition is half-maximal. Read a high IC50 as lower potency.
